Several values for one entry are separate records, joined by “and”; a condition that tells them apart may be missing. Equal values may be shown once.
Columns and labels:
histamine-induced itch [1] = experiment: Histamine-induced itch, test material topically applied in Aqueous Cream BP (histamine iontophoresis, VAS); conditions: for Itch score (area under the curve): VAS area 0 to 5 min; for Itch score % of control: versus vehicle alone
histamine-induced itch [2] = experiment: Histamine-induced itch, test material topically applied in ethanol:Vaseline Intensive Care Lotion; format: in vivo, human; conditions: for Anti-pruritic action (in words): comparison N-acyl ethanolamides in ethanol:VICL lotion; for Itch score % of control: comparison N-acyl ethanolamides, 50 mM in ethanol, in ethanol:VICL lotion, versus vehicle alone of the same run
Procedure: This mixture was applied (250 μl/5 cm^2-5 times at 1 h intervals) and histamine iontophoresis was performed on the treated site in the method described in Example 2. The vehicle control was ethanol:VICL (volume ratio 1:1).
Related molecules stearylethanolamine (SEA; 50 mM in ethanol) and linoleoylethanolamine (LAMEA; 50 mM in ethanol) were tested as potential activating agents for a CBR, employing the test method described in Example 3 and applied in the ethanol:VICL lotion.

[3] = test system: antiperspirant-induced irritation; experiment: Antiperspirant-induced irritation in vivo, 47 h Finn chamber patch test, erythema grading; parameters: species or system human
Procedure: In this Example, patch tests were performed on a mixed panel of 49 volunteers with age ranges between 18 and 55, using a double-blind protocol with randomized patch sites. Samples (20 mg) were applied to a filter paper that was placed within a Finn chamber (0.8 cm internal diameter). The chambers were then attached to the volar forearm using Scanpore™ tape (Norgesplater, Nor.) and left for 47 h. At the end of the 47 h period, the patches were removed and the site was left open for 5 h when the erythema associated with the patch was visually assessed and scored using an in-house standard assessment Patch Grading Scale as set out below.

[4] = test system: skin organotypic cultures (Epiderm™); experiment: Skin organotypic culture: antiperspirant (APF1)-induced IL-6 release, ELISA; conditions: for IL-6 pg/ml ± SD: APF1 topically, 24h
histamine-induced itch [5] = experiment: Histamine-induced itch, test material applied under water-impermeable patch for 24 hours; conditions: PEA 100 mM under patch
[6] = AEA 5% (w/v) in Aqueous Cream BP

CCCCC/C=C\C/C=C\C/C=C\C/C=C\CCCC(=O)NCCO [AEA, (all Z)-N-(2-Hydroxyethyl)-5,8,11,14-eicosatetraenamide]
Itch score (area under the curve) (histamine-induced itch [1]; [6]): 1322 | Itch score % of control (histamine-induced itch [1]; [6]): 76 % of control | Effect on histamine-induced itch (in words) (histamine-induced itch [1]; anandamide topically applied): inhibitor of histamine-induced itch

CCCCCCC(C)(C)c1cc(O)c2c(c1)OC(C)(C)[C@@H]1CC=C(CO)C[C@@H]21 [HU-210, (6aR)-trans-3-(1,1-Dimethylheptyl)-6a,7,10,10a-tetrahydro-1-hydroxy-6,6-dimethyl-6H-dibenzo[b,d]pyran-9-methanol]
Itch score % of control (histamine-induced itch [1]; HU-210 0.05% (w/v) in Aqueous Cream BP): 7.3 % of control | Itch score (area under the curve) (histamine-induced itch [1]; HU-210 0.05% (w/v) in Aqueous Cream BP, volar forearm, after 4 hours): 101 | Itch score % of control (histamine-induced itch [1]; HU-210 0.5% (w/v) in Aqueous Cream BP): 6.2 % of control | Itch score (area under the curve) (histamine-induced itch [1]; HU-210 0.5% (w/v) in Aqueous Cream BP, volar forearm, after 4 hours): 119 | Effect on histamine-induced itch (in words) (histamine-induced itch [1]; HU-210 topically applied in Aqueous Cream BP): capable of reducing histamine-induced itch

CCCCC/C=C\C/C=C\CCCCCCCC(=O)NCCO [LAMEA, linoleoylethanolamine]
Anti-pruritic action (in words) (histamine-induced itch [2]): unable to demonstrate any anti-pruritic action or even appeared to exacerbate the itch response | Itch score % of control (histamine-induced itch [2]): 169 % of control and 108 % of control and 100 % of control

CCCCCCCCCCCCCCCC(=O)NCCO [PEA, Palmitoylethanolamide]
Irritation induced by APF1 (in words) ([3]; 0.25% palmitoylethanolamide in APF1, Wilcoxon signed rank test, significance level 5%): reduced significantly | Mean Irritation Score ([3]; APF1 with 0.25% PEA, 20 mg in Finn chamber 47 h, scored 5 h after removal, Patch Grading Scale 0-4, 49 volunteers): 0.54 | Effect on histamine-induced itch (in words) (histamine-induced itch [2]; PEA topically applied in the presence of a lotion): can inhibit histamine-induced itch | IL-6 pg/ml ± SD ([4]; PEA 0.1 μM in the medium): 38.3 ± 7.6 pg/mL | IL-6 pg/ml ± SD ([4]; PEA 1.0 μM in the medium): 36.5 ± 11.6 pg/mL | IL-6 pg/ml ± SD ([4]; PEA 10.0 μM in the medium): 59.5 ± 13.8 pg/mL | IL-6 pg/ml ± SD ([4]; PEA 100.0 μM in the medium): 43.0 ± 7.9 pg/mL | IL-6 pg/ml ± SD ([4]; PEA 1000.0 μM in the medium): 63.0 ± 24.8 pg/mL | AP-induced IL-6 release (in words) ([4]; PEA at all concentrations used, Dunnet's test p<0.05): significantly decrease AP-induced IL-6 release | Effect on histamine-induced itch (in words) (histamine-induced itch [5]): can inhibit histamine-induced itch

CCCCCCCCCCCCCCCCCC(=O)NCCO [SEA, stearylethanolamine]
Anti-pruritic action (in words) (histamine-induced itch [2]): unable to demonstrate any anti-pruritic action or even appeared to exacerbate the itch response | Itch score % of control (histamine-induced itch [2]): 231 % of control and 260 % of control and 190 % of control

From patent US6503492B2, “Antiperspirant or deodorant compositions” (priority 2001, dated 2003)
